The experiment has as its target CCK receptor. Briefly: 125I-CCK-33 receptor binding assay. To be noted: tissue not stated for the values (methods given for rat pancreas and guinea pig brain cortex membranes); read-out: IC50, inhibition of specific 125I-CCK-33 binding. The method, then: CCK-33 was radiolabeled with […] (2000 Ci/mmole) as described by Sankara et al. [J. Biol. Chem. 254: 9349-9351, (1979)]. Receptor binding was performed according to Innis and Snyder [Proc. Natl. Acad. Sci. 77: 6917-6921, (1980)] with the minor modification of adding the additional protease inhibitors, phenylmethane sulfonyl fluoride and o-phenanthroline. The latter two compounds have no effect on the ^125I-CCK receptor binding assay.
Male Sprague-Dawley rats (200-350g) were sacrificed by decapitation. The whole pancreas was dissected free of fat tissue and was homogenized in 20 volumes of ice-cold 50 mM, Tris HC1 (pH 7.7 at 25°C) with a Brinkman Polytron PT 10. The homogenates were centrifuged at 48,000 g for 10 min. Pellets were resuspended in Tris Buffer, centrifuged as above and resuspended in 200 volumes of binding assay buffer (50 mM Tris HC1, pH 7.7 at 25°C, 5 mM dithiothriethel, 0.1 mM bacitracin, 1.2 mM phenylmethane sulfonyl fluoride and 0.5 mM o-phenanthroline). For the binding assay, 25 µl of buffer (for total binding) or unlabeled CCK-8 sulfate to give a final concentration of luM (for nonspecific binding) or the compounds of Formula 1 (for determination inhibition of 125I-CCR binding) and 25 µl of 125I-CCK-33 (30,000-40,000 cpm) were added to 450 µl of the membrane suspensions in microfuge tubes. All assays were run in duplicate or triplicate. The reaction mixtures were incubated at 37°C for 30 minutes and centrifuged in a Beckman Microfuge (4 minutes) immediately after adding 1 ml of ice-cold incubation buffer. The supernatant was aspirated and discarded, pellets were counted with a Beckman gamma 5000.
CCK-33 was radiolabeled with and the binding was performed according to the description for the pancreas method with modifications according to Saito, et al. (J. Neurochem, 37, 483-490 (1981)).
Hall Hartley guinea pigs (300-500 g) were sacrificed by decapitation and the brains were removed and placed in ice-cold 50 mM, Tris HC1 plus 7.58 g/1 Tritma-7.4 (pH 7.4 at 25°C) Cerebral cortex was dissected and used as a receptor source. Each gram of fresh guinea pig brain tissue was homogenized in 10 ml of Tris/Trizma buffer with a Brinkman polytron PT-10. The homogenates were centrifuged at 42,000 g for 15 minutes. Pellets were resuspended in Tris Buffer, centrifuged as above and resuspended in 200 volumes of binding assay buffer (10 mM HEPES, pH 7.7 at 25°C, 5 mM Mg C12, […], 0.4% BSA (bovine serum albumin) and 0.25 mg/ml bacitracin). For the binding assay, 25 µl of buffer (for total binding) or unlabeled CCK-8 sulfate to give a final concentration of 1µM (for nonspecific binding) or the compounds of Formula 1 (for determination inhibition of ^125I-CCK binding) and 25 µl of ^125I-CCK-33 (30,00-40,000 cpm) were added to 450 µl of the membrane suspensions in microfuge tubes. All assays were run in duplicate or triplicate. The reaction mixtures were incubated at 25°C for 2 hours and centrifuged in a Beckman Microfuge (4 minutes) immedidately after adding 1 ml of ice-cold incubation buffer. The supernatant was aspirated and discarded, pellets were counted with a Beckman gamma 5000.

This is an account of results in patent EP0166357A2, “Benzofused lactams and pharmaceutical compositions containing them” (Merck & Co., Inc., priority 1984, dated 1986).

In general, IC50 refers to the point on the concentration scale where inhibition reaches its midpoint. For the compound `COC(=O)CN1C(=O)C(NCc2c[nH]c3ccccc23)CCc2ccccc21` (racemic) [l-Carbomethoxymethyl-3-(3-indolemethyl)amino homodihydrocarboxtyril], the 50% inhibitory concentration (IC50) worked out at 15000 nM.
In the case of `CCOC(=O)C(CCc1ccccc1)NC1CCc2ccccc2N(C)C1=O` (single isomer, unassigned) [1-Methyl-3-(1-Carboethoxy-3-phenyl-1-propyl) aminohomodihydrocarbostyril] it was 60000 nM; in that of `CC(=O)N[C@H](Cc1c[nH]c2ccccc12)C(=O)NC1CCc2ccccc2N(CC(=O)OC(C)(C)C)C1=O` (single isomer, unassigned) [1-t-Butoxycarbonylmethyl-3-(D-N-acetyltryptophanyl)-aminohomodihydrocarbostyril], 1600 nM; in that of `CC(C)(C)OC(=O)CN1C(=O)C(NC(=O)[C@H](Cc2c[nH]c3ccccc23)NC(=O)OCc2ccccc2)CCc2ccccc21` (single isomer, unassigned) [l-t-Butoxycarbonylmethyl-3(-L-N-carbobenzyloxytrypto- phanyl)aminohomodihydrocarbostyril], 1200 nM.
Turning to `CC(=O)N[C@@H](Cc1c[nH]c2ccccc12)C(=O)NC1CCc2ccccc2N(CC(=O)OC(C)(C)C)C1=O` (single isomer, unassigned) [l-t-Butoxycarbonylmethyl-3-(L-N-acetyltryptophanyl)-aminohomodihydrocarbostyril], the IC50 worked out at 2800 nM.
